Test results taken from patent US8580794B2 (AbbVie Inc., priority 2009, dated 2013).
pKi: −log10 of the molar value.

biological target: GST-Bc1-2 (Homo sapiens, UniProt P10415); assay: Time Resolved-Fluorescence Resonance Energy Transfer (TR-FRET) Bcl-2 binding assay with F-Bak peptide probe; conditions: GST-Bcl-2 1 nM, F-Bak probe 100 nM, Tb-anti-GST 1 nM; '<' = below limit of detection; read-out: TR-FRET Bcl-2 Binding Ki
Sequence (P10415 whole entry): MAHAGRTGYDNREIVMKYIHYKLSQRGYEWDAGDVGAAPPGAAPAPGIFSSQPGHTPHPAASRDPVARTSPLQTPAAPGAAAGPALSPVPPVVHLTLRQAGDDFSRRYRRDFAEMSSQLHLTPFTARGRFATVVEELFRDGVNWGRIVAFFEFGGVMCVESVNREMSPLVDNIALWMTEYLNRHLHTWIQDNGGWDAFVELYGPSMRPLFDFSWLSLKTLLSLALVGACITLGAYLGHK

Row | Structure (SMILES) | pKi
1 | CC1(C)CCC(CN2CCN(c3ccc(C(=O)NS(=O)(=O)c4ccc(NN5CCN(C(=O)OC(C)(C)C)CC5)c([N+](=O)[O-])c4)c(Oc4cnc5[nH]ccc5c4)c3)CC2)=C(c2ccc(Cl)cc2)C1 [Example 232, tert-butyl 4-[(4-{[4-(4-{[2-(4-chlorophenyl)-4,4-dimethylcyclohex-1-en-1-yl]methyl}piperazin-1-yl)-2-(1H-pyrrolo[2,3-b]pyridin-5-yloxy)benzoyl]sulfamoyl}-2-nitrophenyl)amino]piperazine-1-carboxylate] | 8.79
2 | CC1(C)CCC(CN2CCN(c3ccc(C(=O)NS(=O)(=O)c4ccc(N[C@H]5CC[C@H](N(CC6CC6)CC6CC6)CC5)c([N+](=O)[O-])c4)c(Oc4cnc5[nH]ccc5c4)c3)CC2)=C(c2ccc(Cl)cc2)C1 [Example 64, Trans-N-{[4-({4-[bis(cyclopropylmethyl)amino]cyclohexyl}amino)-3-nitrophenyl]sulfonyl}-4-(4-{[2-(4-chlorophenyl)-4,4-dimethylcyclohex-1-en-1-yl]methyl}piperazin-1-yl)-2-(1H-pyrrolo[2,3-b]pyridin-5-yloxy)benzamide] | > 11.00
3 | CC1(C)CCC(CN2CCN(c3ccc(C(=O)NS(=O)(=O)c4ccc(N[C@H]5CCCN(C6CCOCC6)C5)c([N+](=O)[O-])c4)c(Oc4cnc5[nH]ccc5c4)c3)CC2)=C(c2ccc(Cl)cc2)C1 [Example 105, 4-(4-{[2-(4-chlorophenyl)-4,4-dimethylcyclohex-1-en-1-yl]methyl}piperazin-1-yl)-N-[(3-nitro-4-{[(3S)-1-tetrahydro-2H-pyran-4-ylpiperidin-3-yl]amino}phenyl)sulfonyl]-2-(1H-pyrrolo[2,3-b]pyridin-5-yloxy)benzamide] | > 11.00
4 | CC1(C)CCC(CN2CCN(c3ccc(C(=O)NS(=O)(=O)c4ccc(OCC5(F)CCN(C6CC6)CC5)c([N+](=O)[O-])c4)c(Oc4cnc5[nH]ccc5c4)c3)CC2)=C(c2ccc(Cl)cc2)C1 [Example 173, 4-(4-{[2-(4-chlorophenyl)-4,4-dimethylcyclohex-1-en-1-yl]methyl}piperazin-1-yl)-N-({4-[(1-cyclopropyl-4-fluoropiperidin-4-yl)methoxy]-3-nitrophenyl}sulfonyl)-2-(1H-pyrrolo[2,3-b]pyridin-5-yloxy)benzamide] | > 11.00
5 | CC1(C)CCC(CN2CCN(c3ccc(C(=O)NS(=O)(=O)c4cnc(OCC5CCOCC5)c(C(N)=O)c4)c(Oc4cnc5[nH]ccc5c4)c3)CC2)=C(c2ccc(Cl)cc2)C1 [Example 46, 5-({[4-(4-{[2-(4-chlorophenyl)-4,4-dimethylcyclohex-1-en-1-yl]methyl}piperazin-1-yl)-2-(1H-pyrrolo[2,3-b]pyridin-5-yloxy)benzoyl]amino}sulfonyl)-2-(tetrahydro-2H-pyran-4-ylmethoxy)nicotinamide] | 9.03
6 | CC1(C)CCC(CN2CCN(c3ccc(C(=O)NS(=O)(=O)c4ccc(NC[C@@H]5CCN(C6CCOCC6)C5)c([N+](=O)[O-])c4)c(Oc4cnc5[nH]ccc5c4)c3)CC2)=C(c2ccc(Cl)cc2)C1 [Example 145, 4-(4-{[2-(4-chlorophenyl)-4,4-dimethylcyclohex-1-en-1-yl]methyl}piperazin-1-yl)-N-{[3-nitro-4-({[(3S)-1-tetrahydro-2H-pyran-4-ylpyrrolidin-3-yl]methyl}amino)phenyl]sulfonyl}-2-(1H-pyrrolo[2,3-b]pyridin-5-yloxy)benzamide] | > 11.00
7 | CC1(C)CCC(CN2CCN(c3ccc(C(=O)NS(=O)(=O)c4ccc(NCC5CCOCC5)c(S(F)(F)(F)(F)F)c4)c(Oc4cnc5[nH]ccc5c4)c3)CC2)=C(c2ccc(Cl)cc2)C1 [Example 233, 4-(4-{[2-(4-chlorophenyl)-4,4-dimethylcyclohex-1-en-1-yl]methyl}piperazin-1-yl)-N-({3-(pentafluoro-lambda˜6˜-sulfanyl)-4-[(tetrahydro-2H-pyran-4-ylmethyl)amino]phenyl}sulfonyl)-2-(1H-pyrrolo[2,3-b]pyridin-5-yloxy)benzamide] | 8.78
